{"source": "patent US6632924B2", "about": "“Method of measuring plasma membrane targeting of GLUT4” (Whitehead Institute for Biomedical Research, priority 1999, dated 2003)", "key": {"[1]": {"tested_on": "GLUT4 reporter (GLUT4myc7-GFP) in 3T3-L1 cells", "assay": "Flow cytometry assay of GLUT4 reporter translocation to the plasma membrane in 3T3-L1 cells", "format": "cell-based, murine", "settings": "for fold increase in the proportion of total GLUT4 present at the cell surface: insulin 80 nM", "method": "A GLUT4 translocation assay was carried out as follows: 3T3 L1 preadipocytes were infected with a retrovirus encoding a GLUT4 construct fused to green fluorescent protein (GFP) at its carboxy terminus, and containing seven myc epitope tags in the first exofacial loop. A population of cells expressing a narrow window of green fluorescence was isolated by fluorescence activated cell sorting (FACS). These cells were propagated and differentiated on 10 cm plates, and were reseeded on 6-well dishes the day prior to performing the GLUT4 translocation assay. Cells were serum starved for 3 hours, then stimulated or not with 160 nM insulin for 10 minutes. They were then placed on ice and washed with cold phosphate buffered saline with calcium and magnesium (PBS++). All subsequent steps were done at 4° C. Cells were incubated with anti-myc antibody (9E10), washed briefly with PBS++, and incubated with phycoerythrin-conjugated F(ab)2 antimouse IgG. Cells were washed with PBS++, resuspended using EDTA, and analysed by two color flow cytometry.\nOne protocol for carrying out the method of assessing translocation of modified GLUT4 is as follows: 3T3L1 cells are maintained at a subconfluent density, infected with retrovirus expression vectors which include DNA encoding modified GLUT4 and induced to differentiate into adipocytes. After being cultured (e.g., for 8-12 days) under appropriate conditions, the cells are reseeded onto plates (e.g., 6-well plates) and serum starved (e.g., for 3 or more hours). Some cells are stimulated by insulin (e.g., 160 nM, 10 minutes), placed on ice and washed at 4° C. with PBS++ (phosphate buffered saline containing calcium and magnesium). Anti-myc antibody (9E10, available from the American Type Culture Collection) is added to the cells ([…], 1 ½ hours, 4° C.). The cells are again washed with PBS++ at 4° C. and an […] labeled with a red fluorophore (R-phycoerythrin (R-PE) conjugated antimouse IgG, 50 μg/ml, 45 minutes, 4° C.) is added. Another washing with PBS++(4° C.) is carried out, the cells are suspended with EDTA and FACS (fluorescences activated cell scanning/sorting) is carried out.\nConfluent cells were reseeded on the indicated day of differentiation to six well plates (Coming, Costar #3506) one day before use in experiments, and were starved in DMEM without fetal bovine serum for at least 3 hours before insulin stimulation. Insulin was used at 80 nM or 160 nM; no difference was noted between these concentrations in either 3T3-L1 or CHO cells. After treatment in the presence or absence of insulin for the times indicated in each figure, cells were quickly transferred to 4° C. and washed with cold phosphate buffered saline containing 0.9 mM Ca^++ and 0.5 mM Mg^++ (PBS++). All subsequent steps were carried out at 4° C., and staining of externalized myc epitope was done on adherent cells. Cells were incubated with a 1:200 dilution of anti-myc (9E10) ascites in PBS++, 2% bovine serum albumin, 4% donkey serum for 1.5 hours. Cells were then washed twice in PBS++, for 5 min. each time. They were then incubated 45 min. in 12.5 µg/ml R-phycoerythrin conjugated donkey F(ab′)2 anti-mouse IgG secondary antibody, diluted in PBS++, 2% BSA, 4% donkey serum. Cells were washed three times with PBS++, for 10 min. each time, and were resuspended by gentle scraping in PBS++, 2% BSA for flow cytometry. […]"}, "[2]": {"tested_on": "GLUT4 reporter in CHO cells", "assay": "Flow cytometry assay of GLUT4 reporter translocation to the plasma membrane in CHO cells", "format": "cell-based, Chinese hamster", "method": "CHO-K1 cells stably expressing the murine ecotropic retroviral receptor were kindly provided by David Hirsch, Roger Lawrence, and Monty Kreiger (Massachusetts Institute of Technology, Cambridge Mass.), and were maintained in Han's F-12 medium with 10% fetal bovine serum, 2 mM glutamine, 100 U/ml penicillin, and 0.1 mg/ml streptomycin (Baker, B. W., et al., (1992)). To use identical experimental conditions in CHO and 3T3-L1 cells, CHO cells were placed in the same medium used for 3T3-L1 adipocytes two days before assays of GLUT4 trafficking. Phoenix ecotropic retroviral packaging cells were a gift from Garry Nolan (Stanford University Medical Center) and VE23 ecotropic retroviral packaging cells were a gift from Merav Socolovsky (Whitehead Institute, Cambridge Mass.) (Kinsella, and Nolan, Hum Gene Ther. 7:1405-1413 (1996); Socolovsky, M., et al. J Biol Chem. 272:14009-14012 (1997)). Both retroviral packaging cell lines were cultured in DMEM, 10% fetal bovine serum, glutamine, penicillin and streptomycin as above.\nConfluent cells were reseeded on the indicated day of differentiation to six well plates (Coming, Costar #3506) one day before use in experiments, and were starved in DMEM without fetal bovine serum for at least 3 hours before insulin stimulation. Insulin was used at 80 nM or 160 nM; no difference was noted between these concentrations in either 3T3-L1 or CHO cells. After treatment in the presence or absence of insulin for the times indicated in each figure, cells were quickly transferred to 4° C. and washed with cold phosphate buffered saline containing 0.9 mM Ca^++ and 0.5 mM Mg^++ (PBS++). All subsequent steps were carried out at 4° C., and staining of externalized myc epitope was done on adherent cells. Cells were incubated with a 1:200 dilution of anti-myc (9E10) ascites in PBS++, 2% bovine serum albumin, 4% donkey serum for 1.5 hours. Cells were then washed twice in PBS++, for 5 min. each time. They were then incubated 45 min. in 12.5 µg/ml R-phycoerythrin conjugated donkey F(ab′)2 anti-mouse IgG secondary antibody, diluted in PBS++, 2% BSA, 4% donkey serum. Cells were washed three times with PBS++, for 10 min. each time, and were resuspended by gentle scraping in PBS++, 2% BSA for flow cytometry. For experiments involving insulin removal, cells were chilled as above after insulin stimulation, then washed twice with 5 mM sodium acetate, 150 mM NaCl, pH 4.0 (Yang, J., et al., J Biol Chem. 267:1039310399 (1992); Kao, A. W., et al., J Biol Chem. 273:25450-25457 (1998)). Cells were rewarmed in 37° C. DMEM for the times indicated, restimulated or not with insulin, and then returned to 4° C. and chilled with cold PBS++ before staining as above.\nFlow cytometry was done on FACScan or FACSCalibur cytometers (Becton-Dickinson). Appropriate compensation between the FL1 and FL2 channels was set using uninfected (GFP-negative) cells or cells stained with PE only (e.g. using a PE-conjugated anti-transferrin receptor antibody; Pharmingen). […] For each sample, data from ≧10,000 cells were collected. Median fluorescence intensities were used for quantitation, since this measure of central tendency is least sensitive to outliers. For each sample, the PE and GFP fluorescence specifically attributable to the presence of the GLUT4 reporter were determined by subtracting background fluorescences, measured using control unstained cells and cells not expressing the reporter, respectively.\nWhether this recycling mechanism is present in an unrelated cell type was also assessed. This was done by infecting Chinese Hamster Ovary (CHO) cells expressing the murine ecotropic retroviral receptor with a retrovirus carrying the GLUT4 reporter, and using FACS to isolate cells falling within a narrow range of GFP fluorescence intensities. CHO cells are smaller and have less autofluorescence than 3T3-L1 adipocytes or fibroblasts. […]"}, "[3]": {"tested_on": "GLUT4myc-GFP in 3T3-L1 adipocytes", "assay": "Time-lapse video fluorescence microscopy of GLUT4myc-GFP in 3T3-L1 adipocytes", "format": "cell-based, murine", "settings": "3T3-L1 adipocyte; 2.5, 5 and 10 minutes after insulin", "method": "Time lapse video fluorescence microscopy was performed using a Nikon Diaphot 300 inverted microscope as described (Smith, G. A., et al., J Cell Biol. 135:647-660 (1996)). 3T3-L1 adipocytes expressing GLUT4myc-GFP were reseeded to 25 mm round coverslips and were incubated in serum-free DMEM for at least three hours before microscopy. Cells were maintained at 37° C. during microscopy using an aluminum chamber mounted on the stage and connected to a circulating waterbath. Images were acquired every 15 sec using a Hammamatsu CCD camera and Metamorph software (Universal Imaging Corp., West Chester, Pa.).\nThe GLUT4 reporter in a murine retroviral vector was used to infect 3T3-L1 fibroblasts. The infected cells underwent normal adipose differentiation (see below), and we took several approaches to confirm that the GLUT4 reporter traffics appropriately. […] In the absence of insulin, GFP fluorescence is present in the perinuclear pattern that is characteristic of GLUT4, as well as in punctate structures near the plasma membrane and throughout the cytoplasm. Lipid droplets are present in the cytoplasm, and are seen as discrete areas of reduced fluorescence intensity."}, "GLUT4 in adipocytes": {"tested_on": "GLUT4 in adipocytes", "settings": "≦10% in the absence of insulin; cited from earlier work"}, "[4]": {"settings": "CHO cells in DMEM, 80 nM insulin"}}, "data": [{"substance": "insulin", "values": [{"measurement": "fold increase in the proportion of total GLUT4 present at the cell surface", "setting": "[1]; 3T3-L1 adipocytes, 10 min", "result": 5.0, "unit": "fold"}, {"measurement": "difference in response between 80 nM and 160 nM insulin", "setting": "[1]; 3T3-L1 cells", "result": "no difference"}, {"measurement": "fall of the fraction of GLUT4 on the plasma membrane after the peak", "setting": "[1]; all stages of 3T3-L1 differentiation, 80 nM insulin", "result": "30% to 40%"}, {"measurement": "fold increase in the proportion of total GLUT4 present at the cell surface", "setting": "[1]; confluent 3T3-L1 fibroblasts, 5 min", "result": 4.4, "unit": "fold"}, {"measurement": "average maximal increase in the proportion of GLUT4 at the cell surface", "setting": "[1]; mature (Day 8 and 10) 3T3-L1 adipocytes, 80 nM insulin", "result": 5.4, "unit": "fold"}, {"measurement": "difference in response between 80 nM and 160 nM insulin", "setting": "[2]; CHO cells", "result": "no difference"}, {"measurement": "kinetics of GLUT4 redistribution after insulin addition", "setting": "[2]; CHO cells cultured in DME medium (25 mM glucose), 80 nM insulin", "result": "biphasic kinetics"}, {"measurement": "kinetics of GLUT4 externalization after insulin addition", "setting": "[2]; CHO cells cultured in F12 medium (10 mM glucose), 80 nM insulin", "result": "essentially monophasic response"}, {"measurement": "time of peak GLUT4 externalization after insulin addition", "setting": "[2]; [4]", "result": "four to five"}, {"measurement": "time to steady state of cell-surface GLUT4 after insulin addition", "setting": "[2]; [4]", "result": "twenty"}, {"measurement": "peak fold increase in the proportion of GLUT4 at the cell surface versus unstimulated cells", "setting": "[2]; CHO cells in DMEM, 80 nM insulin, 5 minutes after addition", "result": 5.5, "unit": "fold"}, {"measurement": "part of the peak increase in cell-surface GLUT4 eliminated in the subsequent decrease", "setting": "[2]; CHO cells, several experiments", "result": "50% to 60%"}, {"measurement": "fold increase in the proportion of total GLUT4 present at the cell surface", "setting": "[2]; confluent CHO cells, insulin 80 nM, 8 min", "result": 3.5, "unit": "fold"}, {"measurement": "distribution of GFP fluorescence after insulin addition", "setting": "[3]", "result": "redistribution of fluorescence to the plasma membrane"}, {"measurement": "proportion of GLUT4 at the cell surface in the presence of insulin", "setting": "GLUT4 in adipocytes", "result": "approximately 50%"}]}]}
